Values quoted from earlier work as cited in patent US20080026050A1, “SOLID DOSE FORMULATIONS OF A THROMBIN RECEPTOR ANTAGONIST” (priority 2006, published 2008).

Target: T1, thrombin receptor (Homo sapiens, UniProt P25116)
T1 sequence (P25116 22-425): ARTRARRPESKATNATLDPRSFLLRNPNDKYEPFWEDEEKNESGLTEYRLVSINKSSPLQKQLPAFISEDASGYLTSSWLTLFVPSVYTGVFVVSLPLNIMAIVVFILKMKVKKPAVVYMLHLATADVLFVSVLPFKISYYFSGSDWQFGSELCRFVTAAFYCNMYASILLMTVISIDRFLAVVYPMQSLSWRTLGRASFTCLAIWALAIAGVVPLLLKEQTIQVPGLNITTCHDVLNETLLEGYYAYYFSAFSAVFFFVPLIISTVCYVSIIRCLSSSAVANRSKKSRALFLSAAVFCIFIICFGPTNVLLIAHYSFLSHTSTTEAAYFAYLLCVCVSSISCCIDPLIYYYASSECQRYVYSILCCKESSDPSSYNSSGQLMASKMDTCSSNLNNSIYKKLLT
Details: general statement, refers to U.S. application Ser. No. 10/412,982

- selectivity: good
- thrombin receptor antagonist activity (potency): good
Structure (SMILES): CCOC(=O)N[C@@H]1CC[C@@H]2[C@@H](C1)C[C@H]1C(=O)O[C@H](C)[C@H]1[C@H]2/C=C/c1ccc(-c2cccc(F)c2)cn1 [COMPOUND 1]
